# Results published in patent US3957779A, “Benzo-1,2,4-triazines” (Bayer Aktiengesellschaft, priority 1972, dated 1976).
# How the values were obtained:
# Assay type in all cases: cell-based
# Mycoplasma granularum = test: MIC, series dilution test, PPLO-medium (Table 1); conditions: Acholeplasma granularum, 37°C, 18, 24 and 48 hours, read-out: Minimum inhibitory concentration (MIC)
# Description: (§1) The mycoplasmae were tested in the series dilution test (PPLO-medium) at 37°C, with observations after 18, 24 and 48 hours.
# Mycoplasma bovirhinis = test: MIC, series dilution test, PPLO-medium (Table 1); conditions: 37°C, 18, 24 and 48 hours, read-out: Minimum inhibitory concentration (MIC)
# Description: as §1
# Mycoplasma gallisepticum = test: MIC, series dilution test, PPLO-medium (Table 1); conditions: Mycoplasmoides gallisepticum, 37°C, 18, 24 and 48 hours, read-out: Minimum inhibitory concentration (MIC)
# Description: as §1
# Pseudomonas aeruginosa B = test: MIC, plate test (Table 1); conditions: 37°C, 24 hours, read-out: Minimum inhibitory concentration (MIC)
# Description: (§2) The minimum inhibitory concentration (MIC) was determined in the plate test on a complete nutrient base of the following composition: 10 g of proteose-peptone, 10 g of veal infusion, 2 g of dextrose, 3 g of sodium chloride, 2 g of disodium phosphate, 1 g of sodium acetate, 0.01 g of adenine sulphate, 0.01 g of guanine hydrochloride, 0.01 g of uracil, 0.01 g. of xantin, 12 g of agar-agar and 1 liter of water.
# (§3) The incubation temperature was 37°C and the incubation time was 24 hours.
# Klebsiella 63 = test: MIC, plate test (Table 1); conditions: 37°C, 24 hours, read-out: Minimum inhibitory concentration (MIC)
# Description: as §2, §3
# Escherichia coli A261 = test: MIC, plate test (Table 1); conditions: 37°C, 24 hours, read-out: Minimum inhibitory concentration (MIC)
# Description: as §2, §3
# Proteus vulgaris 1017 = test: MIC, plate test (Table 1); conditions: 37°C, 24 hours, read-out: Minimum inhibitory concentration (MIC)
# Description: as §2, §3
# Escherichia coli C165 = test: MIC, plate test (Table 1); conditions: 37°C, 24 hours, read-out: Minimum inhibitory concentration (MIC)
# Description: as §2, §3
# Streptococcus pyogenes = test: MIC, plate test (Table 1); conditions: with serum, 37°C, 24 hours, read-out: Minimum inhibitory concentration (MIC)
# Description: as §2, §3
# [1] = tested on: Staphylococcus aureus 133; test: MIC, plate test (Table 1); conditions: 37°C, 24 hours, read-out: Minimum inhibitory concentration (MIC)
# Description: as §2, §3
# Klebsiella 8085 = test: MIC, plate test (Table 1); conditions: 37°C, 24 hours, read-out: Minimum inhibitory concentration (MIC)
# Description: as §2, §3
# Salmonella species = test: MIC, plate test (Table 1); conditions: 37°C, 24 hours, read-out: Minimum inhibitory concentration (MIC)
# Description: as §2, §3
# Pseudomonas aeruginosa w = test: MIC, plate test (Table 1); conditions: 37°C, 24 hours, read-out: Minimum inhibitory concentration (MIC)
# Description: as §2, §3
# [2] = tested on: Mycobacterium tuberculosis; test: MIC, series dilution test, Jenssen egg medium; conditions: 37°C, read-out: minimum inhibitory concentration
# Description: The compounds of Examples 12 and 13 show minimum inhibitory concentrations of 32 γ/ml of nutrient medium in the series dilution test, Jenssen egg medium, 37°C, against Mycobacterium tuberculosis.
Compound,MIC (Mycoplasma granularum),MIC (Mycoplasma bovirhinis),MIC (Mycoplasma gallisepticum),MIC (Pseudomonas aeruginosa B),MIC (Klebsiella 63),MIC (Escherichia coli A261),MIC (Proteus vulgaris 1017),MIC (Escherichia coli C165),MIC (Streptococcus pyogenes),MIC [1],MIC (Klebsiella 8085),MIC (Salmonella species),MIC (Pseudomonas aeruginosa w),MIC [2]
"CC(=O)Nc1n[n+]([O-])c2ccccc2[n+]1[O-] [Example 2, 3-(N-acetylamino)-benzo-1,2,4-triazine-1,4-di-N-oxide]",< 0.125 µg/mL,< 0.125 µg/mL,< 0.125 µg/mL,4 µg/mL,< 0.5 µg/mL,< 0.5 µg/mL,< 0.5 µg/mL,< 0.5 µg/mL,1 µg/mL,< 0.5 µg/mL,< 0.5 µg/mL,1 µg/mL,8 µg/mL,–
"CCC(=O)Nc1n[n+]([O-])c2ccccc2[n+]1[O-] [Example 3, 3-(N-propionylamino)-benzo-1,2,4-triazine-1,4-di-N-oxide]",< 0.125 µg/mL,< 0.125 µg/mL,< 0.125 µg/mL,128 µg/mL,4 µg/mL,4 µg/mL,1 µg/mL,4 µg/mL,128 µg/mL,1 µg/mL,1 µg/mL,4 µg/mL,128 µg/mL,–
"CC(=O)CC(=O)Nc1n[n+]([O-])c2ccccc2[n+]1[O-] [Example 4, 3-(N-acetoacetylamino)-benzo-1,2,4-triazine-1,4-di-N-oxide]",–,–,–,128 µg/mL,128 µg/mL,8 µg/mL,8 µg/mL,8 µg/mL,8 µg/mL,8 µg/mL,4 µg/mL,8 µg/mL,128 µg/mL,32 µg/mL
